From patent publication US7803823B2, “2-amino-4,5-trisubstituted thiazolyl derivatives” (Janssen Pharmaceutica NV, priority 2001, dated 2010)

Key:
[1] = tested on: IL-12p40 production; assay: In vitro inhibition of IL-12p40 production in human blood (LPS-stimulated whole blood, sandwich ELISA); format: cell-based; conditions: lipopolysaccharide 100 ng/ml, 24 hours, read-out: % inhib. IL-12 (p40); for inhibition at 1 µM: test dose 1 × 10^−6 M
Description: (§1) Peripheral blood from healthy male donors was drawn into heparinized syringes (12.5 U heparin/ml). Blood samples were three-fold diluted in RMPI 1640 medium (Life Technologies, Belgium) supplemented with 2 mM L-glutamine, 100 U/ml penicillin and 100 μg/ml streptomycin, and 300 μl fractions were distributed in 24-well multidisc plates (Nunc, Roskilde, Denmark). Blood samples were preincubated (60 minutes at 37° C.) in a humidified 6% CO2-atmosphere with 100 μl of drug solvent (final concentration 0.02% dimethylsulfoxide in RPMI 1640) or with 100 μl of an appropriate dose of test compound before being stimulated by the addition of 100 μl of lipopolysaccharide at a final concentration of 100 ng/ml. After 24 hours, cell-free supernatant fluids were collected by centrifugation and stored at −20° C. until tested for the presence of IL-12p40.
(§2) Cytokine protein concentrations were determined by sandwich ELISA as described in Van Wauwe et al. (1996, Inflamm Res, 45, 357-363). Murine monoclonals used as capture antibodies to human cytokines were obtained from R&D Systems (Abingdon, United Kingdom) and code named MAB210 and MAB611 for TNF-α and IL-12 respectively. Biotinylated goat polyclonal antibodies used to detect human cytokines were from R&D Systems (BAF210, BAF219). Cytokine levels were calculated from standard curves using recombinant cytokines supplied by R&D Systems.

[2] = tested on: TNF-α production; assay: In vitro inhibition of TNF-α production in human blood (LPS-stimulated whole blood, sandwich ELISA); format: cell-based; conditions: lipopolysaccharide 100 ng/ml, 6 hours, read-out: % inhib. TNF-α
Description: as §1, with “After 6” for “After 24”, “of TNF-α.” for “of IL-12p40.”
as §2

melting point [°C]	SMILES	inhibition at 1 µM [1] [%]	inhibition at 0.1 µM ([1]; test dose 1 × 10^−7 M) [%]	inhibition at 1 µM ([2]; test dose 1 × 10^−6 M) [%]	inhibition at 0.1 µM ([2]; test dose 1 × 10^−7 M) [%]
208 to 210	Fc1sc(Nc2cccc(C(F)(F)F)c2)nc1-c1cccnc1 [Compound 1]	54	56	60	58
–	CC(O)c1sc(Nc2cccc(C(F)(F)F)c2)nc1-c1cccnc1 (stereo not drawn) [Compound 14]	52	–	–	–
